According to patent EP4703363A1, “SALT FORM AND CRYSTAL FORM OF THIENOPYRIMIDINE COMPOUND, AND PREPARATION METHOD THEREFOR AND USE THEREOF” (Shandong Luye Pharmaceutical Co., Ltd., priority 2023, dated 2024):

Experiments:
[1] = Caco-2 monolayer two-way permeability and efflux; type: in vitro ADME; details: human
Experimental: Instruments: water purification instrument, ELGA LabWate; biosafety cabinet, NUAIRE; thermostatic CO2 incubator, Thermo; microplate reader, PerkinElmer; LC-MS/MS, AB SCIEX.
Method: A Caco-2 monolayer cell model was used to determine the two-way permeability of the test substance and evaluate whether the test substance was transported via efflux by a transporter. In the experiment, Caco-2 cells were seeded into a 96-well cell culture plate and cultured for 28 consecutive days before a transport assay. The test substance was administered on two sides. After 120 min of incubation, samples of apical end A, basal end B, and the cell lysate were collected, and the content of the test substance in the samples was quantitatively determined using a liquid chromatography-tandem mass spectrometry (LC/MS/MS) method. The apparent permeability coefficients (Papp) in the direction from the apical end to the basal end (A-B) and in the direction from the basal end to the apical end (B-A) and the efflux ratio were calculated based on the concentration of the test substance. Table 15. The permeability of the compound of formula I in Caco-2 cells

human GnRHR [2] = biological target: T1, human GnRHR (Homo sapiens, UniProt P30968); assay: In vitro binding screening ([125I]-[D-Trp6]-LH-RH displacement, Chem-1 cell membrane); design: host or cells: Chem-1 cells (membrane preparation)
T1 sequence (P30968 1-328): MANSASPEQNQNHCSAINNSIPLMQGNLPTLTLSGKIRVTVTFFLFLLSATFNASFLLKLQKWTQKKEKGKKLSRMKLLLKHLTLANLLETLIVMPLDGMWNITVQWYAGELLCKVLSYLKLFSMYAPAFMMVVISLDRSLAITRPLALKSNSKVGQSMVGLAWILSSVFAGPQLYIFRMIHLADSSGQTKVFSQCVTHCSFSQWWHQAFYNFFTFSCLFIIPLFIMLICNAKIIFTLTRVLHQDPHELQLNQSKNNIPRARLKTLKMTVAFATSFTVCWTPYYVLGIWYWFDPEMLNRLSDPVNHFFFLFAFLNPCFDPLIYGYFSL
Experimental: [D-Trp6]-LH-RH, PerkinElmer; [D-Trp6]-LH-RH, Abcam.
Equipment: MicroBeta2 LumiJET system, PerkinElmer.
1 µM [D-Trp6]-LH-RH was used in the non-specific binding assay. The cell membrane was collected by filtration under vacuum and washed before liquid scintillation. The binding IC50 and IC90 of the compound were calculated using Prism. Table 13. The in vitro binding activity of the compound of the present disclosure to human GnRHR

[3] = In vivo pharmacokinetics in SD rats; details: for F: absolute bioavailability; for AUC(0-t) / C0 / MRT last / half-life / Cmax / Tmax: male, rat, plasma
Experimental: (§1) Rats: SD rats, male, 200-250 g
(§2) Instruments: water purification instrument, Millipore; electronic balance, METTLER TOLEDO; highspeed benchtop centrifuge, Thermo; water bath thermostatic oscillator, Shanghai Yiheng Technical Co., Ltd.; vortex oscillator, Thermo; LC-MS/MS, AB SCIEX.
(§3) Method: Solutions of all compounds were prepared using DMSO and 20% solutol. In the pharmacokinetic experiment, the administration dose for the intravenous group (i.v) was 1 mg/kg, and the administration dose for the intragastric group (i.g) was 12 mg/kg; each group contained 3 rats. Blood was collected from the orbit of the rats before administration (0 h) and at set time points after administration. In the tissue distribution experimental group, the rats were intragastrically dosed at 12 mg/kg. […] The […] was placed in a heparinized EP tube and centrifuged at 13,500 rpm for 10 min to isolate the plasma. The pituitary was homogenized with water in a certain ratio. The plasma and pituitary homogenates were pre-treated and then analyzed by LC-MS/MS to determine the concentrations of the test substances in the plasma and the pituitary. The plasma drug concentration data were processed in a non-compartmental model using WinNonlin™ Version 6.3 (Pharsight, Mountain View, CA) pharmacokinetic software. […] Table 16-1. Pharmacokinetic parameters in SD rats after intravenous administration

[4] = Pituitary tissue distribution in SD rats; type: in vivo; details: intragastric 12 mg/kg; for Kp at 1 h / Kp at 4 h / Kp at 12 h: male, rat, pituitary/plasma, oral
Experimental: as §1, §2, §3

[5] = biological target: T2, human hERG potassium channel (Homo sapiens, UniProt Q12809); assay: hERG test (QPatch automated patch clamp, CHO cells); type: cell-based; details: CHO cells stably expressing human hERG potassium channel
T2 construct: host or cells: CHO
T2 sequence (Q12809 whole entry): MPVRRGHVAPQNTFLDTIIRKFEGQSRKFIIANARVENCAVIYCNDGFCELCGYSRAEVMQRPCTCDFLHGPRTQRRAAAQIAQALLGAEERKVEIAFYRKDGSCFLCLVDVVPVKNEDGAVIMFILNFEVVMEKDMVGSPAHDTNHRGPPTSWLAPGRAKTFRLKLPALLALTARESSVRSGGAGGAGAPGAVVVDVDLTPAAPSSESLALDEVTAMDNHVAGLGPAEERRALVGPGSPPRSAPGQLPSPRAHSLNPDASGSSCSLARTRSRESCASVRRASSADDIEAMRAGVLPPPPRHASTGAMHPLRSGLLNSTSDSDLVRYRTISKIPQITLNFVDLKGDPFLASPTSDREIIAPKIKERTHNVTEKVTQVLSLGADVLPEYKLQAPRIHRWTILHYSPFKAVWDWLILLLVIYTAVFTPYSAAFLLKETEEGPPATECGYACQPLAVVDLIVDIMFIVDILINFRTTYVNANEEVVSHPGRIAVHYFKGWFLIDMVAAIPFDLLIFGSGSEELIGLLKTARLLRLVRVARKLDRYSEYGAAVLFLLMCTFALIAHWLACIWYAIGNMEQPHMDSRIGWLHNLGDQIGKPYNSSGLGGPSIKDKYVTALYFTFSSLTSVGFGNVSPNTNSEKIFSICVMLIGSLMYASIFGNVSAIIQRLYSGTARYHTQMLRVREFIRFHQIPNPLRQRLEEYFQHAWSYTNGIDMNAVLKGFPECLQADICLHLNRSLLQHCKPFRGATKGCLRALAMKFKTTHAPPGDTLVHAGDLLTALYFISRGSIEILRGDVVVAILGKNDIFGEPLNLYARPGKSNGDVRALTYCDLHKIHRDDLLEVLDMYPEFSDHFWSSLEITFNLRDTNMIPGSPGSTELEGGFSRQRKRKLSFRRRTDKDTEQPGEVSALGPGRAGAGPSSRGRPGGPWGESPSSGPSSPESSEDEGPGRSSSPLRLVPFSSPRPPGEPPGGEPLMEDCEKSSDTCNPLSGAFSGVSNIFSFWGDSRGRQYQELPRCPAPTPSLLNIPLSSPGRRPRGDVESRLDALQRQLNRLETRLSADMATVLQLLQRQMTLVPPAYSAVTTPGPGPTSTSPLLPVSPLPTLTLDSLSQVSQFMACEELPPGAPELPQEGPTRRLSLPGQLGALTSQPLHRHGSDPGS
Experimental: Cell: CHO cells stably expressing a human hERG potassium channel (WuXi AppTec (Shanghai) Co., Ltd.)
Reagents: physiological solution (PH = 7.4): 140 mM NaCl, 4 mM KCl, 2 mM CaCl2, 1 mM MgCl2, 5 mM glucose, 10 mM HEPES, osmolarity: about 298 mOsm; external solution (PH = 7.4): 80 mM NaCl, 4 mM KCl, 2 mM CaCl2, 1 mM MgCl2, 5 mM glucose, 60 mM NMDG, 10 mM HEPES, osmolarity: about 289 mOsm; and internal solution (PH = 7.4): 10 mM NaCl, 10 mM KCl, 110 mM KF, 10 mM HEPES, EGTA: […], osmolarity: about 280 mOsm.
Equipment: QPatch high-throughput automated patch clamp system, Sophion.
Method: CHO cells stably expressing a human hERG potassium channel were digested with TrypLE and resuspended in the physiological solution for later use. The single-cell high-impedance sealing and whole-cell mode formation processes were automatically completed by Qpatch. The cells were clamped at a voltage of -80 mV, then a voltage of -50 mV was applied for 80 ms to subtract (current) leakage, and a voltage of +20 mV was applied for 4800 ms to open the hERG channel. The voltage was then reduced to -50 mV and maintained for 5000 ms. This process was used for data collection and analysis. Finally, the voltage was returned to the clamping voltage (-80 mV, 1000 ms). This process was repeated every 20,000 ms. […]

human GnRHR [6] = biological target: T1, human GnRHR; assay: In vitro antagonistic activity screening (FLIPR fluorescence, Leuprolide acetate stimulation); type: cell-based; details: HEK293 cells stably expressing human GnRHR
Experimental: Cell: HEK293 cells stably expressing human GnRHR (WuXi AppTec (Shanghai) Co., Ltd.) Equipment: 384-well plate, Greiner; Vi-cell XR Cell Viability Analyzer, Beckman Coulter; incubator, Thermo.
Method: HEK293 cells stably expressing human GnRHR were seeded into a 384-well plate at a density of 20,000 cells/well. Fluo-4 DirectTM No-wash Loading Buffer (Invitrogen) was added to each well the next day, and then the plate was put back into an incubator, incubated at 37 °C for 50 min, and then incubated at room temperature for 10 min. […] Fluorescence was measured using a FLIPR Tetra high-throughput real-time fluorescence assay and analysis system. Then 10 µL of Leuprolide acetate was added, and fluorescence was measured. The IC50 and IC90 of the compound were calculated using Prism. Table 12. The in vitro antagonistic activity of the compound of formula I against human GnRHR

[7] = intragastric administration group

CCNC(=O)Nc1ccc(-c2sc3c(c2CN(C)C)c(=O)n(-c2ccc(OC)nn2)c(=O)n3Cc2c(F)cccc2F)cn1 [Formula I]
efflux ratio at 120 min ([1]; Caco-2): 294 | Papp A→B at 120 min ([1]; Caco-2, 120 min incubation, A to B): 0.0142 ×10⁻⁶ cm/s | Papp B→A at 120 min ([1]; Caco-2, 120 min incubation, B to A): 4.19 ×10⁻⁶ cm/s | IC50 (human GnRHR [2]): 0.64 nM | IC90 (human GnRHR [2]): 2.67 nM | F ([3]; i.g 12 mg/kg): 19.9% | AUClast relative to Relugolix [3, 7]: 2.45 times | Cmax relative to Relugolix [3, 7]: 3.63 times | AUC(0-t) ([3]; intravenous, i.v 1 mg/kg): 150 ± 12 ng·h/mL | C0 ([3]; intravenous, i.v 1 mg/kg): 68.8 ± 21.7 ng/mL | MRT last ([3]; intravenous, i.v 1 mg/kg): 5.41 ± 0.47 h | half-life ([3]; intravenous, i.v 1 mg/kg): 6.39 ± 1.08 h | AUC(0-t) ([3]; oral, i.g 12 mg/kg): 357 ± 85 ng·h/mL | Cmax ([3]; oral, i.g 12 mg/kg): 78.5 ± 36.4 ng/mL | MRT last ([3]; oral, i.g 12 mg/kg): 6.13 ± 1.1 h | Tmax ([3]; oral, i.g 12 mg/kg): 0.38 ± 0.14 h | half-life ([3]; oral, i.g 12 mg/kg): 4.31 ± 1.81 h | Pituitary ([4]; 1 h): 2250±474 | Plasma ([4]; 1 h): 39.5±14.0 | concentration in the pituitary relative to Relugolix ([4]; 1 h): 2.38 times | Pituitary ([4]; 4 h): 1841±636 | Plasma ([4]; 4 h): 22.8±2.5 | concentration in the pituitary relative to Relugolix ([4]; 4 h): 1.48 times | Pituitary ([4]; 12 h): 1254±494 | Plasma ([4]; 12 h): 9.70±3.10 | concentration in the pituitary relative to Relugolix ([4]; 12 h): 2.46 times | Kp at 1 h ([4]; 1 h): 56.9 | Kp at 4 h ([4]; 4 h): 80.8 | Kp at 12 h ([4]; 12 h): 129 | IC50 [5]: 25800 nM | IC50 (human GnRHR [6]; read-out: Functional IC50): 1.01 nM | IC90 (human GnRHR [6]; read-out: Functional IC90): 7.55 nM

CONC(=O)Nc1ccc(-c2sc3c(c2CN(C)C)c(=O)n(-c2ccc(OC)nn2)c(=O)n3Cc2c(F)cccc2F)cc1 [Relugolix, reference compound]
T1/2 ([3]; i.g 12 mg/kg): 3.88 ± 0.57 h | F ([3]; i.g 12 mg/kg): 5.74% | AUC(0-t) ([3]; intravenous, i.v 1 mg/kg): 212 ± 61 ng·h/mL | C0 ([3]; intravenous, i.v 1 mg/kg): 339 ± 36 ng/mL | MRT last ([3]; intravenous, i.v 1 mg/kg): 2.01 ± 0.92 h | AUC(0-t) ([3]; oral, i.g 12 mg/kg): 146 ± 37 ng·h/mL | Cmax ([3]; oral, i.g 12 mg/kg): 21.6 ± 8.3 ng/mL | MRT last ([3]; oral, i.g 12 mg/kg): 5.68 ± 0.17 h | Tmax ([3]; oral, i.g 12 mg/kg): 0.33 ± 0.14 h | Kp at 1 h ([4]; 1 h): 42.4 | Kp at 4 h ([4]; 4 h): 76.3 | Kp at 12 h ([4]; 12 h): 161
